Consider one molecule from patent US20160082015A1, “METHODS, COMPOSITIONS AND KITS FOR PROMOTING MOTOR NEURON SURVIVAL AND TREATING AND DIAGNOSING NEURODEGENERATIVE DISORDERS” (PRESIDENT AND FELLOWS OF HARVARD COLLEGE, priority 2013, published 2016).

In assay [1] the test system is SOD1^G93A/HB9::GFP MNs. Description: MN death induced by PI3K inhibitor LY294002. It counts as cell-based. Particulars: 10 μM co-incubated with LY294002. As for the experimental part: (§1) FIGS. 3A and 3B show line graphs showing effects of kenpaullone and GSK-3 inhibitor VIII on MN death induced by treatment with a PI3K inhibitor. LY294002 was added to cultures on day 4, with or without concurrent treatment with 10 μM kenpaullone or 10 μM GSK-3 inhibitor VIII. Cells were fixed on day 7 for survival analysis. Survival is measured with respect to cells treated with DMSO alone. FIG. 3C is a bar graph showing that Kenpaullone also blocks death of MNs accelerated by co-culture with SOD1^G93A astrocytes. Hb9:GFP MNs were FACS sorted and plated on a confluent monolayer of wild-type or SOD1^G93A astrocytes. Kenpaullone was added to cultures 24 hrs later and was refreshed every three days by replacing half of the old medium with fresh medium containing IX concentration of the compound. Cells were fixed after nine days of compound treatment and MN survival was determined. Trophic factors were present throughout the experiment. Data are presented as percent survival normalized to that of DMSO treated MNs plated on wild-type astrocytes. Again, kenpaullone was effective in decreasing the extent of death. * p<0.05, ** p<0.01, *** p<0.001 (Student's t test, two-tailed). Data are presented as mean±SEM.
(§2) The PI3K/Akt pathway is well known to regulate neuronal survival including that of MNs (Brunet et al., 2001; Barthélémy et al., 2004). […] The inventors sought to examine if either kenpaullone or a more specific GSK-3 inhibitor (Inhibitor VIII) could protect MNs from death caused by inactivation of PI3K/AKT. […] Thus kenpaullone's effects are not restricted to protection after trophic factor withdrawal.

For assay [2], the system named is HB9::GFP MNs. In words: MN death induced by PI3K inhibitor LY294002. It counts as cell-based. Particulars: 10 μM co-incubated with LY294002. As for the experimental part: as §1, §2
Assay [3] deals with endogenous mouse SOD1 protein. Description: SOD1 protein levels by Western blotting. It counts as cell-based. Particulars: HB9::GFP or SOD1^G93A/HB9::GFP cultures. As for the experimental part: Since the additional death undergone by the SOD1^G93A/HB9::GFP MNs seems likely to relate to their expression of high levels of SOD1^G93A protein, one possibility is that kenpaullone could act in part by reducing those levels. Kenpaullone was added to cultures on day 4, and the levels of mutant SOD1^G93A protein were analyzed by Western blotting on day 21 (FIGS. 5A and 5B). […] The endogenous mouse SOD1 protein was not affected in either HB9::GFP or SOD1^G93A/HB9::GFP cultures (data not shown). In addition, the inventors discovered that kenpaullone had no effect on the levels of wild-type human SOD1 in cultures produced from an ESC line that overexpresses a wild-type human SOD1 transgene (wtSOD1/Hb9::GFP) (FIGS. SA mad SB). […] However, when the inventors used single cell confocal imaging to examine SOD1^G93A levels specifically in GFP^+ cells, it was clear that the SOD1^G93A levels in MNs were reduced, both in the presence and absence of trophic factors (FIG. 5C).
A general note: In western blotting, separated proteins are transferred to a membrane and probed.

Assay [4] deals with HB9::GFP MNs. Description: Mouse MN survival assay, trophic factor withdrawal. Particulars: for survival of HB9::GFP MNs: trophic factors removed and compound added day 4, fixed day 7.
Description: (§5) For the small molecule screen or for standard survival assays, freshly dissociated EBs were plated at a density of 8,000 GFP^+ cells (384-well) or 30.000 GFP+ cells (96-well) per well. Four days later (day 4), trophic factors (BDNF, GDNF and CNTF) were removed, and individual compounds were added to the wells. For the primary screen each was tested at three concentrations (0.1 μM, 1 μM and 10 μM) in duplicate. […] The number of MNs surviving was analyzed by counting the remaining GFP^+ cells in the whole well. Total cell numbers were obtained by counting Hoechst-positive nuclei. A size threshold was set based on control cultures to eliminate apoptotic MNs Unless stated otherwise, survival is measured as fold-increase compared to cultures maintained without trophic factors.
(§6) For long-term MN survival assays, MN cultures were fed with fresh medium and compounds every two days until fixation and quantification as above.
(§7) All primary hits were subsequently tested in a nine-point dose-response assay, using the same screening protocol.
Assay [5] has as its system wild-type human SOD1. In words: SOD1 protein levels by Western blotting. It counts as cell-based. Particulars: wtSOD1/Hb9::GFP cultures. How it is done: (§3) In FIG. 5A cultures grown for 21 days in the indicated conditions were analyzed for levels of human SOD1 protein. The antibody used was specific for human SOD1, as is seen by the lack of staining on wild-type mouse MNs (HB9::GFP). When analyzed on day 21, levels of mutant SOD1^G93A protein, but not wt SOD1 protein, were decreased when cells were treated with kenpaullone in the absence of trophic factors. When analyzed on day 21, SOD1^G93A protein, but not wt SOD1 protein, was decreased when cultures were treated with kenpaullone in the presence of trophic factors as well (FIG. 5B). […] By this analysis, again on day 21, the average amount of SOD1 per MN was decreased by kenpaullone treatment in both +TF and −TF conditions. Scale bar represents 50 μm (FIG. 5C). Data are presented as mean±SEM. * p<0.05, *** p<0.001 (Student's t test, two-tailed).
Since the additional death undergone by the SOD1^G93A/HB9::GFP MNs seems likely to relate to their expression of high levels of SOD1^G93A protein, one possibility is that kenpaullone could act in part by reducing those levels. Kenpaullone was added to cultures on day 4, and the levels of mutant SOD1^G93A protein were analyzed by Western blotting on day 21 (FIGS. 5A and 5B). […] The endogenous mouse SOD1 protein was not affected in either HB9::GFP or SOD1^G93A/HB9::GFP cultures (data not shown). […]

Assay [6] concerns PAK 4, 5 and 6. Particulars: cited from earlier work.
The subject of assay [7] is SOD1^G93A/HB9::GFP MNs. In words: Mouse MN survival assay, trophic factor withdrawal. It counts as cell-based. Particulars: for survival of SOD1^G93A/HB9::GFP MNs: trophic factors removed and compound added day 4, fixed day 7.
Description: as §5, §6, §7
Assay [8] concerns the target HGK (Homo sapiens, UniProt O95819). Description: Kinase activity assay with MBP substrate. It counts as biochemical. Conditions: recombinant kinase, myelin basic protein substrate. The source says: (§4) The enzymatic reaction was stopped with Laemmli buffer and samples were separated in a polyacrylamide gel. Finally, the gel was exposed to a Storage Phosphor Screen (GE Healthcare) and scanned in a Typhoon 9400 scanner (GE Healthcare). Signal density was estimated with Quantity One software (Bio-Rad).

In assay [9] the target is T1, MLK3 (Homo sapiens, UniProt Q16584).
T1 construct: purchased SignalChem
In words: Kinase activity assay with MBP substrate. It counts as biochemical. Particulars: recombinant kinase, myelin basic protein substrate.
From the text: as §4

The test system of assay [10] is SOD1^G93A protein. Description: SOD1 protein levels by Western blotting and single cell imaging. It counts as cell-based, human. How it is done:
as §3
Immunostaining was carried out using standard protocols (Makhortova et al., 2011). […]
Since the additional death undergone by the SOD1^G93A/HB9::GFP MNs seems likely to relate to their expression of high levels of SOD1^G93A protein, one possibility is that kenpaullone could act in part by reducing those levels. Kenpaullone was added to cultures on day 4, and the levels of mutant SOD1^G93A protein were analyzed by Western blotting on day 21 (FIGS. 5A and 5B). […]

“Also recorded” adds a separate entry of the source.

HGK, sequence (O95819 whole entry): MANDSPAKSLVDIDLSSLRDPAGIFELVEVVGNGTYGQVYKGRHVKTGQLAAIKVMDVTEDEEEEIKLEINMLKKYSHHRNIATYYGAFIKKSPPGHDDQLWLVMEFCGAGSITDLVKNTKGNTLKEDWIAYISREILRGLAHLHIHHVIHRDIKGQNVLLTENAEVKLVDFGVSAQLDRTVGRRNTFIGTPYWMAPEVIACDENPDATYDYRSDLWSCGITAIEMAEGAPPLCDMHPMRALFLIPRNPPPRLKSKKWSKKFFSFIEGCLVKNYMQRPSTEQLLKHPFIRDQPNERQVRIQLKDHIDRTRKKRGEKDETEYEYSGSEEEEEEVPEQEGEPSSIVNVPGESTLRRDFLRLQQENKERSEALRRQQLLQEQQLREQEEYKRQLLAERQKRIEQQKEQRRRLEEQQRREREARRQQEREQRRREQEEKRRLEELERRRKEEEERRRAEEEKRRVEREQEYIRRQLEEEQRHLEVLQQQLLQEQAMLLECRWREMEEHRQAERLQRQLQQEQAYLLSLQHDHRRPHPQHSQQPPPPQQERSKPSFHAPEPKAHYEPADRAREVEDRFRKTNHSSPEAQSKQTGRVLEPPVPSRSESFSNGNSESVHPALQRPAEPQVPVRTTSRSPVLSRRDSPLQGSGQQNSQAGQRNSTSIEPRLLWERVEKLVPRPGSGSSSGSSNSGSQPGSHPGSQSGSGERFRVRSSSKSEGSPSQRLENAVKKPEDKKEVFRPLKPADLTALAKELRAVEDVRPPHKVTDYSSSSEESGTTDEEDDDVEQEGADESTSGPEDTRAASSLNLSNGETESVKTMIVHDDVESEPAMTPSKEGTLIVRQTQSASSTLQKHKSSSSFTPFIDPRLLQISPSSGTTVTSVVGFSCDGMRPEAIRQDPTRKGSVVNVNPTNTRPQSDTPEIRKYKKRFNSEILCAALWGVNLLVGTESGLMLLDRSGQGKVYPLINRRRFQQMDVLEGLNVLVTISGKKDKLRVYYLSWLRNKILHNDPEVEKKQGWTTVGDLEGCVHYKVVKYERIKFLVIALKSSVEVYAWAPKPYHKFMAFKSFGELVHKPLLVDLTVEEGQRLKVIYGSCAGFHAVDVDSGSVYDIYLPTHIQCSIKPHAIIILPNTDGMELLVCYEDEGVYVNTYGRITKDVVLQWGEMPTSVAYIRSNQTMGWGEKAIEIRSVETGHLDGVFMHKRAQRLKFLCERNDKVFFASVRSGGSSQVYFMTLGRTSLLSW
T1 sequence (Q16584 whole entry): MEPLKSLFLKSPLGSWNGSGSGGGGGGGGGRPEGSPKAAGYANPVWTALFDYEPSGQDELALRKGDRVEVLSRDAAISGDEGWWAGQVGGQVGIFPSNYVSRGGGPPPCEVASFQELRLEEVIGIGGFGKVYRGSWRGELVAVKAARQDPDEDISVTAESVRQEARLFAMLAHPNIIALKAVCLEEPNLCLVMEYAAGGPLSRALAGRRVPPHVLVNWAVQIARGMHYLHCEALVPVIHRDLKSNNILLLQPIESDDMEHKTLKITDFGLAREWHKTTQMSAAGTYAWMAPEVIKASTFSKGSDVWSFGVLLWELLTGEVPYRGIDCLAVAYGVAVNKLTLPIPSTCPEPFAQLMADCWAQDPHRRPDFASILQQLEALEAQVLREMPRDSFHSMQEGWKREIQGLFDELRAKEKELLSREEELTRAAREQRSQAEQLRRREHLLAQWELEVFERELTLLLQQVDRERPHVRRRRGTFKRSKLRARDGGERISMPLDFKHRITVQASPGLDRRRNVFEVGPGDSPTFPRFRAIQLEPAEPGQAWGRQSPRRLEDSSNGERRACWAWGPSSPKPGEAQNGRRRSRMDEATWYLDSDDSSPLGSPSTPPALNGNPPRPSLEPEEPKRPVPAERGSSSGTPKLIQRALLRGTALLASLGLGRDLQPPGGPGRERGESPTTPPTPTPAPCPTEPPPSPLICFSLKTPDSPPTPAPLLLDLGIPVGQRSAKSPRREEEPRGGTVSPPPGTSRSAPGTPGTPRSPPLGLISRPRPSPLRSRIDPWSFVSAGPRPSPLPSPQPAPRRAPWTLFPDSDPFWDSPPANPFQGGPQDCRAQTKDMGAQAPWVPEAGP

As to `O=C1Cc2c([nH]c3ccc(Br)cc23)-c2ccccc2N1` [Kenpaullone], the “protection from LY294002-induced MN death” value in [1] and in assay [2] was “significantly attenuated” in each case. Also, in assay [3], the “endogenous mouse SOD1 protein” value is “not affected”. Besides, in assay [4] (Ara-C before trophic factor withdrawal), the “MN survival effect after Ara-C treatment to eliminate dividing progenitors” value was “did not decrease the effect”. Also, the “long-term survival of MNs without trophic factors” value in assay [4] (days 7, 14, 21 and 28) was “improved survival”; in [7] (days 7, 14, 21 and 28) it was “improved survival”. For the same molecule, the “MN death in complete medium (+TF)” value in [4] (first two weeks) and in [7] (first two weeks) was “reduced the death” each time. In addition, the “survival of FACS purified MNs” value in [4] (highly enriched Hb9::GFP MN cultures, Ara-C, trophic factors removed) is “still able to promote survival”. Besides, the “survival of HB9::GFP MNs” value is on record as “strong effects” in [4] and “potent survival promoting effects” in assay [4] (listed as kenpaullone). Moreover, the “levels of wild-type human SOD1” value in assay [5] is given as “no effect”. Besides, the “inhibition of PAK 4, 5 and 6” value in [6] is on record as “inhibits”. Besides, the “number of SOD1^G93A/HB9::GFP MNs in medium with kenpaullone” value in assay [7] (complete medium (+TF), day 28) stood at 8 times. For the same molecule, the “survival of SOD1^G93A/HB9::GFP MNs” value in assay [7] is “strong effects”; in [7] (listed as kenpaullone) it was “potent survival promoting effects”. The HGK activity entry in assay [8] is listed as “inhibited; also recorded: strongly inhibits”. Also, the MLK3 activity result in assay [9] was “not”. In addition, in assay [10] (added day 4, Western blotting day 21, with and without trophic factors), the “levels of SOD1^G93A protein” value is “sharp decrease”. The “mutant protein levels, untreated versus treated cultures” value in assay [10] (until sometime after 15 days of treatment) is recorded as “no differences”.
